Experiments:
[1] = tested on: qLTG-3-1 gene; assay: qLTG-3-1 gene expression by Northern blot and RT-PCR analysis; parameters: species or system rice (O. sativa); conditions: ABA, NaCl (250 mM), mannitol (500 mM)
Procedure: To carry out an analysis of gene expression, the total RNA was extracted from various organs of rice using RNAiso (TAKARA). The total RNA (0.5 μg) was reverse-transcripted with Rever Tra Ace (TOYOBO) having an Oligo(dT)20 primer, in accordance with the manufacturing guidelines. The PCR reaction was carried out using KOD-plus (TOYOBO). Each PCR reaction (10 μL) included 0.5 μL of cDNA template that had been diluted 5-fold. The specificity of each primer for the target gene was confirmed by PCR product sequencing. For the purpose of Northern blotting analysis, the total RNA (4 μg/sample) was isolated on 2.0% (w/v) agarose-modified formaldehyde gel containing 40 mM MOPS (pH 7.0), 10 mM Na-acetate, 1 mM EDTA and 2% (v/v) formaldehyde.
The RNA was transferred with 20×SSC to a positively charged nylon membrane (Roche Diagnostics). Hybridization and signal detection were carried out by, respectively, a DIG system and CDP-star (Roche Diagnostics). The PCR fragments from the primers 13-5U and 13-5L were used as the probes for Northern blot analysis. The primers and amplification conditions for RT-PCR analysis are shown subsequently in Table 5.
In this example, the expression of the qLTG-3-1 gene was studied. Using RNAiso (TAKARA), the total RNA was extracted from each organ of rice and treated with DNaseI (TAKARA). For Northern blot analysis, the total RNA (4 μg/sample) was separated on 2.0% (w/v) agarose-modified formaldehyde gel containing 40 mM of MOPS (pH 7.0), 10 mM of sodium acetate and 2% (v/v) formaldehyde.
The RNA was blotted with 20×SSC to a positively charged nylon membrane (Roche Diagnostics). Hybridization and signal detection were carried out with a DIG system and CDP-Star (Roche Diagnostics) according to the manufacturing guidelines. The PCR fragments obtained from the primers 13-5U and 13-5L were used as the probes for Northern blot analysis (Table 5).
In this example, the association between qLTG-3-1 expression and seed germination was examined. […]

[2] = tested on: rice seeds (Hayamasari, NILHYqLTG-3-1, Italica Livorno); assay: germination tests under stress conditions (ABA, GA, NaCl, mannitol, temperature); parameters: species or system rice (O. sativa); conditions: for germination response at low NaCl / mannitol concentrations: concentrations lower than 250 mM mannitol and 150 mM NaCl
Procedure: To study the germinability under difference stress conditions, germination tests were carried out according to the method reported by Fujino et al. (2004). For low-temperature stress, seeds were placed on Petri dishes which were then loaded into an incubator. Solutions of plant hormones (ABA and GA), NaCl and mannitol at different concentrations were added to the Petri dishes which were then placed in an incubator. […] (A) is the germination at the optimal temperature of 25° C., (B) is the germination at 13° C., (C) is the sensitivity to NaCl (300 mM), (D) is the sensitivity to mannitol (500 mM), and (E) is the sensitivity to ABA ([…]). Examples of […]-3-1 (closed triangles), and Italica Livorno (open circles) are shown. The numerical values represent the mean±standard deviation (SD) for triplicates. […] In (A), the seeds were incubated in water at 25° C., 15° C., 13° C. and 10° C. In (B), GA (100, 200, 500 μM) was added at 15° C.; in (C), ABA ([…]) was added at 25° C.; in (D), NaCl (150, 250, 300 mM) was added; and in (E), mannitol (250, 500, 600 mM) was added, following which incubation was carried out. The open circles indicate controls. The low concentrations to high concentrations are indicated by, in order, open circles, triangles and squares. […] The open and closed symbols represent, respectively, the presence and absence of […]-3-1 and Italica Livorno are represented by, respectively, circles, triangles, and squares. […] Germination tests were carried out by the method reported by Fujino et al. (2004). For the low temperature stress, seeds on a Petri dish were placed in an incubator. Solutions of plant hormone (ABA and GA) and mannitol at different concentrations were added to the Petri dishes at this time before placing the dishes in the incubator.

Compound | qLTG-3-1 expression pattern in embryos under stress treatment [1] | germination response in ABA treatment ([2]; ABA added at 25° C.) | effect of exogenous GA on seed germination ([2]; 15° C., Hayamasari, NILHYqLTG-3-1 and Italica Livorno) | germination response at low NaCl / mannitol concentrations [2]
CC1=CC(=O)CC(C)(C)C1(O)/C=C/C(C)=C\C(=O)O (stereo not shown) [ABA] | delay and suppression of qLTG-3-1 expression | a delay in germination was observed in both parents |  | 
C=C1C[C@]23C[C@@]1(O)CC[C@H]2[C@@]12C=C[C@H](O)[C@@](C)(C(=O)O1)[C@H]2[C@@H]3C(=O)O [GA] |  |  | did not promote seed germination in any of the genotypes | 
[Cl-].[Na+] [NaCl] | delay and suppression of qLTG-3-1 expression |  |  | all the varieties showed a delay in germination
OC[C@@H](O)[C@@H](O)[C@H](O)[C@H](O)CO [mannitol] | delay and suppression of qLTG-3-1 expression |  |  | all the varieties showed a delay in germination
